{"source": "patent US6166290A", "about": "“Glutathione-S-conjugate transport in plants” (The Trustees of the University of Pennsylvania, priority 1997, dated 2000)", "key": {"[1]": {"system": "vacuolar membrane vesicles purified from Arabidopsis leaf / root", "conditions": "cited from earlier work"}, "[2]": {"system": "vacuolar GS-X pump (vacuolar membrane vesicles, Z. mays roots)", "test": "GS-conjugate uptake by vacuolar membrane vesicles from roots of Z. mays", "assay_type": "biochemical, Zea mays"}, "[3]": {"molecular_target": "T1, AtMRP2 (Arabidopsis thaliana, UniProt Q42093)", "T1 construct": "S. cerevisiae DTY168 (ycf1 null) vacuolar-enriched membrane vesicles", "T1 sequence (Q42093 whole entry)": "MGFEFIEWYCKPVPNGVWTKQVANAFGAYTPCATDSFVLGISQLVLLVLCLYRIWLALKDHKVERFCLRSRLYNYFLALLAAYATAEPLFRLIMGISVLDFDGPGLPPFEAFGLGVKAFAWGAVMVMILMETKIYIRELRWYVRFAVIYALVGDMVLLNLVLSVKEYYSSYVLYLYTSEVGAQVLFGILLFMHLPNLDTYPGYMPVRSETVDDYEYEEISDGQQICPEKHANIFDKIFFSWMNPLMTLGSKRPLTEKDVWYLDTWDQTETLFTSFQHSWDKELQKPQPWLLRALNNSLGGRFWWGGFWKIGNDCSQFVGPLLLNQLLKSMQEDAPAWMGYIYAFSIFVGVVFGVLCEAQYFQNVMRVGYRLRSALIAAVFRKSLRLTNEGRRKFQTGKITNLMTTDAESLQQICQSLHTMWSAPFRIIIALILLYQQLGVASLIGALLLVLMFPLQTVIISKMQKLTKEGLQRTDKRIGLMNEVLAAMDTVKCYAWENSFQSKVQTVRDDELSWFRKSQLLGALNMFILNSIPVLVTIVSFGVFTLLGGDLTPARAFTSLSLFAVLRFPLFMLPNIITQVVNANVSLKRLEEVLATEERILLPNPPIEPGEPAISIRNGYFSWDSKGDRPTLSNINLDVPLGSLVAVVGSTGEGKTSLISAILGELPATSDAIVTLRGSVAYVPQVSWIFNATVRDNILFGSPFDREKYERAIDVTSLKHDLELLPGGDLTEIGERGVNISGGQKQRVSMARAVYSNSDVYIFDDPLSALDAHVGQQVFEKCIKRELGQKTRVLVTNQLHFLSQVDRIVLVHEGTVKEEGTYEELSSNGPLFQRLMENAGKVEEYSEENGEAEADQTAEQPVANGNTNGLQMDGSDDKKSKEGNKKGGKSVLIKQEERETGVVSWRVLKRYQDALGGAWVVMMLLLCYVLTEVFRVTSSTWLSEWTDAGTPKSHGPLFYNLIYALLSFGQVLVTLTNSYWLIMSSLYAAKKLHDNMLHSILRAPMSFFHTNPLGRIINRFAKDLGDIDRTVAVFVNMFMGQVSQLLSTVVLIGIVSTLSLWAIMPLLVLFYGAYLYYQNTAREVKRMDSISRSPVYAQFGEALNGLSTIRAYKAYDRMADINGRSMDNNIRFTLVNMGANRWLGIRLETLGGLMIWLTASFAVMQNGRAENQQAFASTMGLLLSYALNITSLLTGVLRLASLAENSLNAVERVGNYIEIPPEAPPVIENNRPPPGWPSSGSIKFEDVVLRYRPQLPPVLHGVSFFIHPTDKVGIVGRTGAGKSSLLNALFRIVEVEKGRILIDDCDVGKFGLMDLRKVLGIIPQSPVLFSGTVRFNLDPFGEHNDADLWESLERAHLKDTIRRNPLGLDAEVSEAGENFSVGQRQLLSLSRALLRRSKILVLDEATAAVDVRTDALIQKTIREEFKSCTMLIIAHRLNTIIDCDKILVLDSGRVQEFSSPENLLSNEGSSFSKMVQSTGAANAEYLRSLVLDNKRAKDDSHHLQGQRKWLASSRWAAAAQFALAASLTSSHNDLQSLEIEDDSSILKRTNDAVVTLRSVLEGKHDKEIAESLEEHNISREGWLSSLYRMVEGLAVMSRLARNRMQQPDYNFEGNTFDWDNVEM", "test": "AtMRP2-dependent uptake by membrane vesicles from pYES3-AtMRP2-transformed DTY168 cells", "assay_type": "biochemical", "in_short": "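Vacuolar membrane-enriched vesicles from DTY168 yeast expressing AtMRP2 took up 61.3 μM [3H]DNP-GS for 10 min; glucose (200 mM) plus hexokinase (50 units/ml) was then added to deplete ATP, while controls received nothing. Uptake was stopped with ice-cold sorbitol/Tris-Mes pH 8.0 and filtered, with filter radioactivity counted by scintillation. Nonenergized uptake was measured without ATP.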"}, "[4]": {"molecular_target": "T2, AtMRP1 (Arabidopsis thaliana, UniProt Q9C8G9)", "T2 construct": "S. cerevisiae DTY168 (ycf1 null) vacuolar-enriched membrane vesicles", "T2 sequence (Q9C8G9 whole entry)": "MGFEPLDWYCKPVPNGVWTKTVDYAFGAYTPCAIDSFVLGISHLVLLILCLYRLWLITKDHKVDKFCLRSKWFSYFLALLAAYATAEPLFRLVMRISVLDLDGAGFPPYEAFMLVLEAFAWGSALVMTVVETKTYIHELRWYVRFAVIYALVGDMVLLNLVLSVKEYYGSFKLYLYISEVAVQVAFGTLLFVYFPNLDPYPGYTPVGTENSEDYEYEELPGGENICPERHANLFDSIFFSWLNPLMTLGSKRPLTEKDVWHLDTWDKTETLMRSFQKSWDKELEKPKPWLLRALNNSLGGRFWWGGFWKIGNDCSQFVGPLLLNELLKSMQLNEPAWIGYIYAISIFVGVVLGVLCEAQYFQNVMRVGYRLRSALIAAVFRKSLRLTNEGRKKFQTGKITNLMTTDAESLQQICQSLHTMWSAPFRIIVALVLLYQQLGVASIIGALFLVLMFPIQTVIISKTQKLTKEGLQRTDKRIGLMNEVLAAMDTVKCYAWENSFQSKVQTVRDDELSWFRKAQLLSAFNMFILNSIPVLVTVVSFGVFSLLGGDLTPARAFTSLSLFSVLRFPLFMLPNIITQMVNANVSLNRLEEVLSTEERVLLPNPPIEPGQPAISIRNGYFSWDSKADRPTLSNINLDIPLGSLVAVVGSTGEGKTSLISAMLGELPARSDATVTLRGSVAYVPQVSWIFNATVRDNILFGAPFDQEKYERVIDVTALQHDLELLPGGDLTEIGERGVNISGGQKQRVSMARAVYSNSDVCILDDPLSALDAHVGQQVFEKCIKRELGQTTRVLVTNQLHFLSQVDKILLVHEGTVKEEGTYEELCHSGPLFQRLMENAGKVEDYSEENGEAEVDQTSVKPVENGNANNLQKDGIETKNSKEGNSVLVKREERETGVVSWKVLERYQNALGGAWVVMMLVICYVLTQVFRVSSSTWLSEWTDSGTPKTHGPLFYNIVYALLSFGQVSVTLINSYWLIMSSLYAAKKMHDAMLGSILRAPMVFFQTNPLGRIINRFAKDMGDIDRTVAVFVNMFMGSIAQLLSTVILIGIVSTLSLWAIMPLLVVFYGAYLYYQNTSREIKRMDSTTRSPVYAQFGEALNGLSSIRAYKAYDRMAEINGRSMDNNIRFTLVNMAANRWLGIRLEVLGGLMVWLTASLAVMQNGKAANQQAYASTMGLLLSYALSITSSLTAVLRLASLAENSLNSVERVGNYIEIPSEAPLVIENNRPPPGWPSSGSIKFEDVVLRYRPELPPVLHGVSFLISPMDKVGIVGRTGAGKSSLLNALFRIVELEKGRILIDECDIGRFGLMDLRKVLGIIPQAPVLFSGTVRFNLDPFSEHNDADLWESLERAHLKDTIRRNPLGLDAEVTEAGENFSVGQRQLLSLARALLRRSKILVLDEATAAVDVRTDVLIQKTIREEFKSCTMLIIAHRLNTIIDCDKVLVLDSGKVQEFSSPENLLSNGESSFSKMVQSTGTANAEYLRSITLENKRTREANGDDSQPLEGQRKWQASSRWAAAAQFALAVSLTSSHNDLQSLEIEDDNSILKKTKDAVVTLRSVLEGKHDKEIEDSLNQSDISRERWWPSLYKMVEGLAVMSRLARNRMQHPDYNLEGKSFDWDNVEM", "test": "AtMRP1-dependent uptake by membrane vesicles from pYES3-AtMRP1-transformed DTY168 cells", "assay_type": "biochemical"}, "[5]": {"system": "vacuolar GS-X pump (vacuolar membrane vesicles, Z. mays roots)", "conditions": "Zea mays root; cited from earlier work"}, "[6]": {"system": "vacuolar GS-X pump (vacuolar membrane vesicles, V. radiata hypocotyls)", "conditions": "cited from earlier work"}, "[7]": {"system": "membrane vesicles purified from pYES3-transformed DTY168 cells", "test": "DNP-GS uptake by membrane vesicles from pYES3 (empty vector)-transformed DTY168 cells", "assay_type": "biochemical, Saccharomyces cerevisiae", "method": "S. cerevisiae strain DTY168 (MATα his6, leu2-3, -112, ura3-52 ycf1::hisG) was transformed with pYES3-AtMRP1 or empty vector lacking the AtMRP1 insert (pYES3) by the LiOAc/PEG method (Giest et al., 1991, Yeast 7:253-263) and selected for uracil prototrophy by plating on AHC medium containing tryptophan (Kim et al., 1994, supra).\nFor the preparation of membrane vesicles, 15 ml volumes of stationary phase cultures of the transformants were diluted into 1 L of fresh AHC medium and grown to an OD600 nm of about 1.2. Membrane vesicles were purified as described herein and in Kim et al. (1995, supra).\nDNP-GS uptake was measured as described herein in 200 μl reaction volumes containing 3 mM ATP, 3 mM MgSO4, 5 μM gramicidin-D, 10 mM creatine phosphate, 16 units/ml creatine kinase, 50 mM KCl, 1 mg/ml BSA, 400 mM sorbitol, 25 mM Tris-Mes (pH 8.0) and the indicated concentrations of [^3 H]DNP-GS (17.4 mCi/mmol)."}, "[8]": {"system": "vacuolar membrane vesicles purified from DTY167 cells (ycf1Δ mutant)", "assay_type": "biochemical, Saccharomyces cerevisiae", "in_short": "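ATP-dependent [3H]DNP-GS (66.2 μM) transport measured by filtration and scintillation counting of Ficoll-purified yeast vacuolar vesicles (DTY165 wild type; DTY167 ycf1Δ), 1–60 min at 25 °C in sorbitol/Tris-Mes pH 8.0 with 3 mM ATP, 3 mM MgSO4 and gramicidin-D. Nonenergized uptake without ATP/Mg2+.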"}, "[9]": {"conditions": "MgATP-dependent, uncoupler-insensitive"}}, "note": "“And” between values parts separate entries of the source, which are not always exact repeats. Equal values may be shown once. Read-outs that look alike come from different tables or passages of the source.", "data": [{"smiles": "N[C@@H](CCC(=O)N[C@@H](CSc1ccc([N+](=O)[O-])cc1[N+](=O)[O-])C(=O)NCC(=O)O)C(=O)O", "note": "[DNP-GS, S-(2,4-dinitrophenyl)glutathione]", "values": [{"measurement": "rate of MgATP-dependent, uncoupler-insensitive DNP-GS uptake", "setting": "[1]; Arabidopsis leaf", "value": 2.3, "unit": "nmol/mg/20 minutes"}, {"measurement": "rate of MgATP-dependent, uncoupler-insensitive DNP-GS uptake", "setting": "[1]; Arabidopsis root", "value": 3.8, "unit": "nmol/mg/20 minutes"}, {"measurement": "IC50", "setting": "[2]; read-out: I50 for uptake of ABA-GS", "value": 232, "unit": "µM"}, {"measurement": "IC50", "setting": "[2]; read-out: I50 for uptake of C3G-GS", "value": 112, "unit": "µM"}, {"measurement": "IC50", "setting": "[2]; read-out: I50 for uptake of IAA-GS", "value": 110, "unit": "µM"}, {"measurement": "Vmax for AtMRP2-dependent [3H]DNP-GS uptake in the presence of Bn-NCC-1", "setting": "[3]; 15 μM Bn-NCC-1", "value": "18.3±1.6", "unit": "nmol/mg/10/min"}, {"measurement": "Vmax for AtMRP2-dependent uptake", "setting": "[3]; [9]", "value": "16.3±3.1", "unit": "nmol/mg/10 min"}, {"measurement": "increase in DNP-GS uptake following introduction of plasmid borne AtMRP1", "setting": "[4]", "value": "ca. 4 nmol/mg/20 minutes"}, {"measurement": "initial rate of DNP-GS uptake", "setting": "[4]; 61.3 μM DNP-GS", "value": 0.4, "unit": "nmol/mg/min"}, {"measurement": "Vmax for AtMRP1-dependent uptake", "setting": "[4]; [9]", "value": "6.0±1.7 nmol/mg/10 min and 8.2±1.6 nmol/mg/10 min"}, {"measurement": "rate of MgATP-dependent, uncoupler-insensitive DNP-GS uptake", "setting": "[5]", "value": 2.1, "unit": "nmol/mg/20 minutes"}, {"measurement": "rate of MgATP-dependent, uncoupler-insensitive DNP-GS uptake", "setting": "[6]; Vigna radiata hypocotyl", "value": 5.8, "unit": "nmol/mg/20 minutes"}, {"measurement": "Km estimated previously in this system", "setting": "[6]", "value": 80, "unit": "µM"}, {"measurement": "Vmax of GS-X pump", "setting": "[6]; comparison value for DNP-GS", "value": 12, "unit": "nmol/mg/20 minutes"}, {"measurement": "initial rate of DNP-GS uptake", "setting": "[7]; 61.3 μM DNP-GS", "value": 0.1, "unit": "nmol/mg/min"}, {"measurement": "Km", "setting": "[7]; read-out: apparent Km for DNP-GS uptake", "value": "> 500", "unit": "µM"}, {"measurement": "initial rate of DNP-GS uptake", "setting": "[8]; 3 mM MgATP, 66.2 μM DNP-GS", "value": 1.7, "unit": "nmol/mg/min"}, {"measurement": "DNP-GS uptake, control", "setting": "[8]; Table 1: 66.2 μM DNP-GS, 3 mM MgATP, no addition", "value": "15.4 ± 0.4", "unit": "nmol/mg/10 minutes"}, {"measurement": "MgATP-dependent, uncoupler-insensitive DNP-GS uptake, control", "setting": "[8]; Table 2: 5 μM gramicidin D, no compound", "value": "6.5 ± 0.8", "unit": "nmol/mg/10 minutes"}]}]}
